System: dogs with advanced heart failure
Assay: LV pressure-volume relationship in dogs with advanced heart failure, 120-min infusion
Format: in vivo, dog
Details: HF dogs
Procedure: In a subsequent study baseline hemodynamic, ventriculographic, echocardiographic and LV pressure-volume was measured, before each dog was intravenously administered a continuous, 4.3 ng/kg/min infusion of h-SCP (SEQ ID NO:1) for 120 min. At the end of the 120-min infusion, complete hemodynamic, ventriculographic, echocardiographic, and LV pressure-volume measurements were repeated. Lead II on the electrocardiogram was monitored throughout the study for development of de novo ventricular arrhythmias. The dosing solutions were not adjusted or corrected for peptide content since the peptide content of the test article used in these studies fell between the customary 85-90% limit where this correction is not required. […]
All hemodynamic measurements were made during left and right heart catheterizations in anaesthelized dogs at each specified study time point. Aortic and LV pressures were measured using cathetenip micromanometers (Millar Instruments, Houston, Tex.), and LV end-diastolic pressure (LVEDP) was measured from the LV pressure waveform. […] Ventriculography were recorded on digital media at 30 frames per second during a power injection of 15 mL of contrast material (Conray; Mallinckrodt Inc., St. Louis, Mo.). […] The end-systolic and end-diastolic pressure-volume points were determined for beats at end-expiration in the usual fashion. […]

Substance: H-TKFTLSLDVPTNIMNLLFNIAKAKNLRAQAAANAHLMAQI-NH2 [SEQ ID NO: 1, TKFTLSLDVPTNIMNLLFNIAKAKNLRAQAAANAHLMAQI-NH2]
- absolute value of EDPVR slope (4.3 ng/kg/min infusion for 120 min (untreated 0.257)): 0.128
- slope of the ESPVR (4.3 ng/kg/min infusion for 120 min (untreated 1.38±0.26)): 2.26±0.46

Source: patent US20110105397A1, “METHOD FOR TREATING HEART FAILURE WITH STRESSCOPIN-LIKE PEPTIDES” (priority 2009, published 2011)
